Results from US20190275087A1, “EXPANSION AND DIFFERENTIATION OF STEM CELLS” (Allergan Pharmaceuticals International Limited, priority 2018, published 2019).

Key:
MSCs [1] = experiment: MSC proliferation with integrin, FGFR, FAK and PKB/AKT inhibitors; assay type: cell-based, Human; settings: for reduction of tropoelastin-mediated proliferation: downstream signaling inhibitor, 7 days
Experimental: (§1) Sub-confluent flasks of MSCs were treated with 0.05% (v/v) trypsin-EDTA (Sigma-Aldrich®) at 37° C. for 5 min to lift off adherent cells from the culture vessel. Trypsin was neutralized with two volumes of serum-containing growth media. Cells were centrifuged at 270 g for 5 min and resuspended in the required media. Cells were seeded at a density of 5000 cells/cm^2 on bare or protein-coated tissue culture plastic wells, in normal or supplemented media. Media was changed every 2 days. After specific time points, cells were fixed with 3% (v/v) formaldehyde at room temperature for 20 min, washed with PBS, then stained with 0.1% (w/v) crystal violet in 0.2 M MES buffer for 1 hour. Excess stain was washed off four times with reverse osmosis water. The retained stain was solubilized with 10% (v/v) acetic acid and sample absorbance values indicative of cell abundance were read at 570 nm. Sample absorbance values were subtracted by baseline values (corresponding to cell numbers in serum-free media, or cell numbers on day 1 post-seeding) and expressed as a fraction of the highest absorbance among all samples on day 7 post-seeding.
To block specific integrin activity, up to 20 μg/mL of anti-αv or anti-αvβ3 integrin antibodies (Abcam®), or up to 1:250 dilution of anti-αvβ5 integrin antibody (Abcam®) was added to the media during MSC spreading or proliferation assays. […] An anti-β8 integrin (5 μg/mL) (Abcam®) or a non-specific mouse IgG (5 μg/mL) (Sigma-Aldrich®) were also included as negative antibody controls. […] The integrin and FGFR inhibitors were replenished during every media change.

integrins on MSCs = experiment: cell-based or functional assay
MSCs [2] = experiment: MSC attachment to substrate-bound tropoelastin (EDTA inhibition, cation add-back); assay type: cell-based, Human; settings: 5 mM
Experimental: MSCs were seeded at a density of 1.5×10^5 cells/cm^2 on tropoelastin-coated wells in serum-free α-MEM containing 0-9 mM ethylenediaminetetraacetic acid (EDTA) (Sigma-Aldrich®). The cells were incubated for 1 hour at 37° C., then washed with PBS to remove unbound cells. Bound cells were fixed, stained and measured for absorbance at 570 nm as described for the proliferation assays. The percentage of cell attachment was determined relative to a set of standards with known cell numbers.
MSCs were washed with cation-free PBS, centrifuged at 270 g for 5 min, and resuspended in cation-free PBS. The cells were seeded at a density of 1.5×10^5 cells/cm^2 on tropoelastin-coated wells in the presence of 0-0.5 mM cation (Mg^2+, Ca^2+ or Mn^2+) and incubated for 45 min at 37° C. Bound cells were fixed and stained, and cell attachment was quantified as previously described.

MSCs [3] = experiment: Flow cytometry of MSC surface marker expression; assay type: cell-based, Human; settings: bare TCP, media with only this growth factor, 7 days post-seeding
Experimental: MSCs cultured for 5 or 7 days in various media formulations and on bare or protein-coated tissue culture wells were trypsinised and pelleted. The cell pellets were washed with 0.22 μm filtered FACS buffer (5% v/v FBS in PBS) and re-centrifuged at 270 g for 5 min. The cells were resuspended in FACS buffer to a concentration of 100,000 cells in 100 μL total volume, and probed for MSC marker expression using the Human Mesenchymal Stem Cell Verification Flow Kit (R&D Systems®). Isotype and unstained control samples were prepared using MSCs cultured in standard growth media on tissue culture plastic. Cells were analyzed using a BD™ Biosciences LSR II Flow Cytometer System. Singlet cells were determined by their forward scatter-to-side scatter and scatter height-to-width ratios, while viable cells were identified by exclusion of 1:20 propidium iodide. Only singlet, viable cells were analyzed for marker expression.

[4] = tested on: Human bone marrow-derived MSCs; experiment: MSC proliferation (crystal violet cell abundance); assay type: cell-based
Experimental: Human bone marrow-derived MSCs obtained from American Type Culture Collection (ATCC) were cultured in normal media, which consists of Alpha-Minimum Essential Medium (α-MEM) (Lonza) with 10% (v/v) FBS (Life Technologies) and 2.4 mM L-glutamine (Lonza), at 37° C. in a humidified normoxic incubator up to a maximum of 10 population doublings. Where indicated, the normal media was supplemented with 15 ng/mL IGF-1 (Life Technologies) and/or […] bFGF (Life Technologies), equivalent to the growth factor concentrations in the ATCC-recommended media. Cells were passaged once they reach 70-80% confluence.
Where indicated, tissue culture plastic wells were coated with 20 μg/mL recombinant human tropoelastin (Elastagen) or 2 μg/mL fibronectin (Sigma-Aldrich®) in PBS (10 mM phosphate, 150 mM NaCl, pH 7.4) at 4° C. overnight. The protein solution was removed, and wells were washed three times with PBS to remove unbound protein prior to cell seeding.
[…] To prevent protein adhesion on the tissue culture substrate, wells were pre-incubated with normal media for 5 hours to enable surface blocking by serum proteins prior to cell seeding in supplemented media.
as §1

MSCs [5] = experiment: MSC spreading with integrin-blocking antibodies; assay type: cell-based, Human; settings: no antibody
Experimental: Cells were fixed and visualized by phase contrast microscopy with a Zeiss Axio Vert.A1 microscope. Images were taken on an AxioCam ICml monochrome camera. […] Cell spreading was quantified by counting the percentage of spread cells in each field of view. Three fields of view were obtained for each sample replicate.
To block specific integrin activity, up to 20 μg/mL of anti-αv or anti-αvβ3 integrin antibodies (Abcam®), or up to 1:250 dilution of anti-αvβ5 integrin antibody (Abcam®) was added to the media during MSC spreading or proliferation assays. Optimal inhibitory concentrations were selected for the anti-αv (5 μg/mL), anti-αvβ3 (5 μg/mL), and anti-αvβ5 (1:500 dilution) integrin antibodies. An anti-β8 integrin (5 μg/mL) (Abcam®) or a non-specific mouse IgG (5 μg/mL) (Sigma-Aldrich®) were also included as negative antibody controls. To block FGFR activity, up to 20 μM of the SU-5402 FGFR inhibitor (Sigma-Aldrich®) was added to the media during MSC proliferation. The integrin and FGFR inhibitors were replenished during every media change.

recombinant human tropoelastin (Elastagen), sequence (P15502 other isoform, or with tags, fused parts or gaps limits assumed): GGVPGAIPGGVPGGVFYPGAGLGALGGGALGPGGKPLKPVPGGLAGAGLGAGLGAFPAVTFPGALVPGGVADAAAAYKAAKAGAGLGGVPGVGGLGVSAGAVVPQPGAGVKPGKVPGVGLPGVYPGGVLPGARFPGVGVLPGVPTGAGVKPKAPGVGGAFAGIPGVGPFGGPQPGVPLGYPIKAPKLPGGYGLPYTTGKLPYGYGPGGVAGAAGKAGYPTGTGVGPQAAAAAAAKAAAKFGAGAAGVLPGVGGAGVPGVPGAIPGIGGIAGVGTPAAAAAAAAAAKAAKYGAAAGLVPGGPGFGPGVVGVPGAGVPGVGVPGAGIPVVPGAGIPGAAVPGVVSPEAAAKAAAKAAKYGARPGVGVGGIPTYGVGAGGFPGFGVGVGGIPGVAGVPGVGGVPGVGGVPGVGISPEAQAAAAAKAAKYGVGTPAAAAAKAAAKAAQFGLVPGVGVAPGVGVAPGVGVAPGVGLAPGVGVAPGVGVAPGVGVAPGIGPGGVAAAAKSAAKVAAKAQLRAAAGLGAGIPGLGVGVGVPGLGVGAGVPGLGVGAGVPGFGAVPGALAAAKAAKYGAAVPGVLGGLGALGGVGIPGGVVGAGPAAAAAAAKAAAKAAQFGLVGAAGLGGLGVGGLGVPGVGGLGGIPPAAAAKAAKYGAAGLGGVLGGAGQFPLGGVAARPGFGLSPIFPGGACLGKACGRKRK

Nc1cc(N)c(N)cc1N [FAK inhibitor 14]
reduction of tropoelastin-mediated proliferation (MSCs [1]): 50.7±2.0%

Cc1c[nH]c(/C=C2\C(=O)Nc3ccccc32)c1CCC(=O)O [SU-5402]
reduction in overall cell numbers compared to no inhibitor control (MSCs [1]; bFGF-supplemented media, over 7 days): ≤ 78.9±0.7%

CCCCCCCCCCCCCCCCCCOP(=O)([O-])OC1CC[N+](C)(C)CC1 [perifosine]
reduction of tropoelastin-mediated proliferation (MSCs [1]): 21.3±0.5%

recombinant human tropoelastin (Elastagen) (from UniProt P15502 27-724) (ligand)
MSC adhesion to tropoelastin after addition of up to 0.5 mM Ca2+ (integrins on MSCs): 13.7% | MSC adhesion to tropoelastin after addition of up to 0.5 mM Mg2+ (integrins on MSCs): 51.8% | MSC adhesion to tropoelastin after addition of up to 0.5 mM Mn2+ (integrins on MSCs): 76.1% | MSC adhesion to tropoelastin in a cation-free environment (integrins on MSCs): 20% | reduction of MSC attachment to substrate-bound tropoelastin in the presence of 5 mM EDTA (integrins on MSCs): 48.9%

O=C(O)CN(CCN(CC(=O)O)CC(=O)O)CC(=O)O [EDTA, ethylenediaminetetraacetic acid, reference compound]
reduction of MSC binding to tropoelastin (MSCs [2]): 48.9±0.5%

bFGF: basic fibroblast growth factor (Life Technologies), media supplement [reference compound]
cells positive for CD105 (MSCs [3]): 92.9±5.9%

fibronectin [reference compound]
decrease in MSC proliferation on coated surface following serum reduction ([4]; 20% reduction in serum, after 7 days): 15±0.1% | inhibition of MSC proliferation on coated TCP compared to normal media ([4]; 40% decrease in serum, after 7 days): 25±1% | coating concentration that promoted MSC expansion ([4]; coated on the substratum): ≥ 2 µg/mL | serum reduction at which MSC numbers significantly decreased ([4]; coated surface, until 3 days post-seeding): completely absent | MSC propagation of fibronectin coating relative to tropoelastin coating ([4]; full serum media): equally promoted | stimulation of MSC proliferation above normal media ([4]; in solution in media, up to 7 days): did not trigger any proliferative response | cell spreading on fibronectin (MSCs [5]): 92.5±2.6%

IGF-1: insulin-like growth factor-1 (Life Technologies), media supplement [reference compound]
MSC numbers compared to normal media ([4]; media supplementation with IGF-1 alone): did not increase MSC numbers | cells expressing CD73 (MSCs [3]): 89.1±0.1% | cells positive for CD105 (MSCs [3]): 83.9±0.7%
